The results in this text go back to US20040202638A1, “Substance capable of potentiating laminin 5 productivity in epidermal cells and utilization thereof” (priority 2001, published 2004).

The subject of this experiment is laminin 5. In words: Laminin 5 productivity evaluation test (keratinocyte culture, sandwich ELISA). In kind it is cell-based, human. The conditions noted are these: for laminin 5 productivity potentiating action: result in words. On the procedure:
(1) Culture of Keratinocytes
Keratinocytes were isolated from the human preputium and cultured in an epidermal cell growth medium (KGM) having a low calcium concentration. To this culture medium were added bovine pituitary extract and EGF. After cultivation in KGM up to the fourth generation, the cells were treated with trypsin and EDTA to suspend adherent cells. Then, the culture was filtered to remove cell aggregates and thereby to obtain a homogeneous cell suspension. The cells were collected by centrifugation and resuspended in DMEM-F12 (2:I)-0.1% BSA so as to give a cell density of8×10^4 per ml. Each 0.5 ml of this cell suspension was added to 0.5 ml of the same medium containing a twofold concentration of each test sample. Using a 24-well plate, incubation was carried out at 37° C. for 24 hours. After completion of the incubation, the culture supernatant was transferred to an Eppendorf tube and centrifuged at 10,000 rpm for 5 minutes. The supernatant was transferred to a new tube and stored at −20° C. till the day for the determination of laminin 5. In order to solubilize laminin 5 in the cells and that bound to the culture plastics, a tris-HCl buffer (pH 7.4) containing various surfactants was added to each well and allowed to stand at −20° C. overnight. On the following day, the mixture was ultrasonicated and frozen again. On the following day, the mixture was thawed again and centrifuged at 10,000 rpm for 5 minutes. The supernatant was transferred to a tube and stored at −20° C. till the day for the determination of laminin 5.
(2) Determination of Laminin 5 by the Sandwich ELISA Method
Laminin 5 present in the culture supernatant and the cell layer was determined by the sandwich ELISA method. A monoclonal antibody (BM165) to the laminin α3 chain of laminin 5 was attached to a solid layer of a 96-well ELISA plate. In order to determine laminin 5 in sandwiched manner, a monoclonal antibody (6F12) to the laminin β3 chain was previously biotinized (b-6F12) and used as the other antibody. […] A sample was added to each of the wells in which a 3% gelatin-phosphate buffer solution containing b-6F12 had previously been placed. The final dilution ratio of the sample in the wells was ¼ for the culture medium and 1/10 for the cell layer. After the antigen-antibody reaction was carried out at 37° C. for 2 hours, the plate was washed, and an avidin HRP (horseradish peroxidase) solution was added thereto and reacted for a period of 30 minutes to 1 hour. After washing, a solution of ABTS serving as a substrate for HRP was added thereto and the absorbance at 405 nm was measured with an ELISA plate reader. A calibration curve was constructed over a range of 0 to 40 ng/ml.
The sum of the laminin 5 liberated into the culture medium and that remaining in the cell layer was calculated. The yield of laminin 5 was expressed by the relative value to that of the sample to which none of the plant extracts was added (control).

Setting [1] is: Table 3 (comparative example), concentration 1 μM.
[2] abbreviates: Table 3 (comparative example), concentration 10 μM.
Setting [3] is: Table 3 (comparative example), concentration 100 μM.

In the case of `O=c1c(-c2ccc(O)cc2)coc2cc(O[C@@H]3O[C@H](CO)[C@@H](O)[C@H](O)[C@H]3O)ccc12` [daidzin, daidzein-7-glucoside], the “laminin 5 productivity potentiating action” value is on record as “little or no laminin 5 productivity potentiating action”.

Regarding `C=C(C)[C@@H]1CC[C@]2(C)CC[C@]3(C)[C@H](CC[C@@H]4[C@@]5(C)CC[C@H](O)C(C)(C)[C@@H]5CC[C@]43C)[C@@H]12` [Lupeol, lupeol], the “laminin 5 productivity potentiating action” value is reported as “exhibiting laminin 5 productivity potentiating action”. Further, the “Laminin 5 yield (%) Relative to the Control” value (Table 2, concentration 0.1 μM) was 122%. The “Laminin 5 yield (%) Relative to the Control” value (Table 2, concentration 1 μM) was 154%.

Regarding `O=c1c(-c2ccc(O)cc2)coc2cc(O)ccc12` [Daidzein, 4′,7-dihydroxyisoflavone], the “laminin 5 productivity potentiating action” value is “little or no laminin 5 productivity potentiating action”. The “Laminin 5 yield (%) Relative to the Control” value under setting [1] amounted to 93%. In addition, the “Laminin 5 yield (%) Relative to the Control” value under setting [2] worked out at 99%. Moreover, the “Laminin 5 yield (%) Relative to the Control” value under setting [3] was found to be 74%.

As for `O=c1c(-c2ccc(O)cc2)coc2c([C@@H]3O[C@H](CO)[C@@H](O)[C@H](O)[C@H]3O)c(O)ccc12` [Puerarin, daidzein-8-glucoside], the “laminin 5 productivity potentiating action” value is “little or no laminin 5 productivity potentiating action”.

`C[C@H]1[C@H](C)CC[C@]2(C)CC[C@]3(C)C4=C(CC[C@@]3(C)[C@H]12)[C@@]1(C)CC[C@H](O)C(C)(C)C1CC4` (stereo partly drawn) [Isobauerenol, isobauerenol]: the “laminin 5 productivity potentiating action” value was “exhibiting laminin 5 productivity potentiating action”. Besides, the “Laminin 5 yield (%) Relative to the Control” value (Table 2, concentration 1 μM) came out at 132%. The “Laminin 5 yield (%) Relative to the Control” value (Table 2, concentration 10 μM) amounted to 137%.

On to `O=c1c(-c2ccc(O)c(O)c2)coc2c([C@@H]3O[C@H](CO)[C@@H](O)[C@H](O)[C@H]3O)c(O)ccc12` [Glucoside, 8-β-D-glucopyranosyl-7-hydroxy-3-(3′,4′-dihydroxyphenyl)-4H-1-benzopyran-4-one], for which the “Laminin 5 yield (%) Relative to the Control” value came out at 93% under setting [1], 95% under setting [2] and 99% under setting [3].
